In patent US20080090916A1, “Compounds for Treating Urinary Incontinence” (priority 2005, published 2008):

Experiments:
mini pigs = conditions: 1 mg/kg i.v., at maximum effect; cited from earlier work
[1] = test system: vesicourethral junction sphincter muscle strips; experiment: Enzyme assay: regeneration of 1R,2S-methoxamine from compound (Ia) by gamma glutamyl transferase, reaction product tested on muscle strips; format: cell-based, pig; conditions: 0.3 mM
Experimental: Regeneration of 1R,2S-methoxamine from the Compound of Formula (Ia)
Into a clean glass vial (1 ml volume) the following reaction mixtures were pipetted as follows:
200 μl compound of formula (Ia), 10 mg/ml in Tris buffer (mol. wt. 376, therefore=2 mg compound of formula (Ia)=5.3 μMoles), 100 μl solution E
Reaction product of groups 1, 2 and 3 were only tested for biological activity after 30 minutes of incubation period at 37° C. while that of group 4 were also tested after, 10, 30 and 60 minutes of incubation period. A 5 h group of which reaction mixture indicated in group four were diluted by two fold after 30 min incubation were also tested for biological activity.
Gamma glutamyl transferase, 2-1-18 porcine kidney was purchased from Calzyme Labs San Luis Obispo, Calif. 93401 USA, glyclglycine was obtained from Acros Organics, New Jersey, USA while L-glutamic acid 5-(4-nitroanilide) was purchased from Fluka Chemie Switzerland.
The reaction mixture was incubated in HOT BOX oven, size one incubator made by Gallenpark, England, while the absorbance was measured (@λmax 405 nm), using Anthos 2020 UV/VIS spectrophotometer.
Representative traces of pig vesicourethral junction sphincter muscle response to various enzyme reaction products are shown in FIG. 3 and representative traces of pig proximal sphincter muscle response to various enzyme reaction products are shown in FIG. 4. The enzyme reaction products tested are as follows: • FIG. 3a-50 mM Tris HCl buffer; • FIG. 3b-50 mM Tris HCl buffer, gamma glutamyl transferase. • FIG. 3c-50 mM Tris HCl buffer, MgCl2.6H2O, glycylglycine, compound of formula (Ia); • FIG. 4a-50 mM Tris HCl buffer, MgCl2.6H2O, glycylglycine, gamma glutamyl transferase, compound of formula (Ia); • FIG. 4b-0.3 mM 1R,2S-methoxamine.

[2] = Influence of intra-anally applied 1R,2S-methoxamine gel on micturition in subjects; format: in vivo; conditions: experimental studies with appreciable systemic levels
Experimental: The study was conducted according to the following protocol:
• a) 1% by weight 1R,2S-methoxamine in 4% w/w gel • b) 3% by weight 1R,2S-methoxamine in 4% w/w gel • The 4% w/w gel comprises 4 g of hydroxypropylmethyl cellulose in 96 ml of 0.5M acetate buffer. 1% by weight 1R,2S-methoxamine in 4% w/w gel comprises 1 g of 1R,2S-methoxamine in 99 g of the 4% gel. Investigation
In a study for other purposes including 44 subjects, each subject had either the 3% methoxamine gel or the 1% methoxamine gel applied intra-anally. About 1 g of gel was used.

[3] = test system: pig vesicourethral junction sphincter muscle; experiment: Functional assay: dose response on isolated pig vesicourethral junction sphincter muscle strips; format: cell-based; conditions: for EC50: Sus scrofa, contraction, from dose response curve, read-out: relative potencies (EC50); for maximum response: mean ±SEM; for contractile response of muscle strip (representative traces): compound alone, FIG. 1
Excerpt: Samples of female white landrace pig bladder and urethra were obtained from freshly slaughtered pigs at the local abattoir. The pigs were killed by exsanguination after initial stunning by electric shock. The anus, rectum, bladder and urethra were then excised en bloc during evisceration and immediately transferred into pre oxygenated Krebs' solution (1 mmol/l: NaCl 120, KCl 5.9 NaHCO3 15.4, CaCl2 2.5, MgCl2 1.2, glucose 11.5) and transported to the laboratory, where they were stored in the refrigerator (at 4° C.) until ready to be processed.
The location of the vesicourethral junction sphincter was then identified. The bladders were inflated via a transurethral catheter with 200 ml. fluid. The fluid was then gently squeeze towards the outlet, until a sharp narrowing of the bladder base becomes apparent (Dass, 1997; Dass et al., 2001). Tissue sections from this region were then denuded of urothelium, and dissected transversely into a number of muscle strips.
Muscle strips measuring about 5-6 mm by 2-3 mm with an average weight of 7 mg were dissected, fine (5/0) silk threads were tied at each end of the strips and each strip mounted vertically in a 0.2 ml capacity, perspex organ bath between two recessed platinum electrodes through which electrical field stimulation (EFS) could be delivered. Strips were constantly superfused with Krebs' solution (37° C.) at a rate of 1.5 ml 1 min. The Krebs' solutions were gassed with 97% oxygen 3% carbon dioxide. Drugs were delivered by substituting drug containing solutions of the desired concentration for Krebs' solutions.
The apparatus comprised of six organ baths in parallel allowing the study of six strips simultaneously as described by Brading and Sibley (1983). Each channel was calibrated with a 1 g weight attached to the transducer before each experiment, and tissues were tensioned to 1 g after mounting. Isomeric tension generated by the strips was measured using isomeric force displacement transducers, Pioden Dynamometer UFI transducers (Pioden Controls Ltd, Canterbury, Kent) or AD Instruments MLT050/D force transducers, amplified (Harvard Transducer/Amplifier, Harvard Apparatus Ltd, Edenbridge, Kent) and analyzed using MacLab Data Acquisition system (AD Instruments, Sydney, Australia) or AD Instruments OCTAL Bridge Amplifier connected to Power Lab/8SP (AD Instruments, Sydney, Australia) and Chart v3.6 software (Macintosh) or Chart v5 (PC).
Dose response curves for the various compounds were constructed by testing one drug on a pair of strip in each experiment. The preparations were subjected to a sequence of successive 10 s […] applications of increasing doses of drugs with intervening washout periods.
1R,2S-methoxamine hydrochloride, the compound of formula (Ia) and the compound of formula (III) were made available by Norgine International Research, Middlesex.
Responses were reported as either grams of tension or % maximum force and given as mean values ±SEM. EC50 values were used as a measure of potency. The EC50 values were measured from the graph of dose response curve using the kaleidograph graphical software applications. Results were assessed using statistical analysis software, StatView 5.0 (SAS Institute Inc.) using ANOVA followed by Fisher's test. Significant difference between data was assumed with p<0.05.

For `COc1ccc(OC)c([C@@H](O)[C@H](C)N)c1` [1R,2S-methoxamine, (1R,2S)-2-amino-1-(2,5-dimethoxyphenyl)propan-1-ol], the “rise in diastolic pressure” value (mini pigs) is listed as 57%, the “rise in systolic pressure” value (mini pigs) is listed as 23% and the “less effective than Mg^2+-glycylglycine-compound of formula (Ia)-enzyme mixture” value [1] is listed as 29%. For the same molecule, the “contractile (bladder) response” value ([1]; no enzyme) was 1.15 g, the “unwanted systemic side effects” value [2] was “elevation of blood pressure” and the EC50 [3] was 56.2 µM. The maximum response ([3]; at a concentration of 10^−3M) was 1.12 g and the “contractile response of muscle strip (representative traces)” value [3] was “pronounced well defined contractile response”.

With `COc1ccc(OC)c([C@@H](O)[C@H](C)NC(=O)[C@@H](N)CCC(=O)O)c1` [compound of formula (III), (S)-4-Amino-4-[(1S,2R)-2-(2,5-dimethoxyphenyl)-2-hydroxy-1-methyl-ethylcarbamoyl]butyric acid] the “biological activity retained relative to 1R,2S-methoxamine” value [3] was “approximately 10%”, the EC50 [3] was 495 µM and the “contractile response of muscle strip (representative traces)” value [3] was “well defined contractile response”. For the same molecule, the maximum response ([3]; observed at 10^−2M) was 1.33 g.
